Assay results published in patent US7931742B2, “Biocidal Structural Barrier (BSB)” (BASF SE, priority 2005, dated 2011).

Test system: termites
Test: Anti-termite effectiveness of chlorfenapyr incorporated in a concrete block (barrier test after NF X41-541)
Type: in vivo
Experimental: A block of concrete, 10 cm high, with passages for the termites, is poured, incorporating the treatment product in the mixing water.
After drying and an infiltration test, the test set-up and performance follow the standard NF X41-541. The barrier effect of the specimen is verified by evaluation of the mortality and penetration of the termites in the clean compartment containing blocks of wood. An evaluation of the blocks of wood following the scoring of EN NF 117 is performed at the end of the test.

## CCOCn1c(-c2ccc(Cl)cc2)c(C#N)c(Br)c1C(F)(F)F [chlorfenapyr]
Concrete treated with chlorfenapyr, overall conclusion
  Barrier effect of treated concrete against termites: effectively prevents termites from attacking a building
Series A: concentration studied 0.05 % (m/m), retention in the concrete: product 261 ppm, chlorfenapyr 56 ppm, 132 g/m^3
  Rate of survival %: 0%
Series B: concentration studied 0.1 % (m/m), retention in the concrete: product 521 ppm, chlorfenapyr 112 ppm, 265 g/m^3
  Rate of survival %: 0%
Series C: concentration studied 0.3 % (m/m), retention in the concrete: product 1567 ppm, chlorfenapyr 337 ppm, 795 g/m^3
  Rate of survival %: 0%
Series D: concentration studied 0.6 % (m/m), retention in the concrete: product 3132 ppm, chlorfenapyr 673 ppm, 1588 g/m^3
  Rate of survival %: 0%
